Laboratory results as given in ChEMBL document CHEMBL1201862, “PubChem BioAssay data set” (2004).
The source made the active and inactive calls.

Assays:
Type in all cases: functional
[1] = target: T1, Replicative DNA helicase DnaB (Mycobacterium tuberculosis, UniProt P9WMR3); test: DnaB intein splicing inhibitors, dose response, biochemical, cell-free fluorescence (AID 449749)
T1 sequence (P9WMR3 whole entry): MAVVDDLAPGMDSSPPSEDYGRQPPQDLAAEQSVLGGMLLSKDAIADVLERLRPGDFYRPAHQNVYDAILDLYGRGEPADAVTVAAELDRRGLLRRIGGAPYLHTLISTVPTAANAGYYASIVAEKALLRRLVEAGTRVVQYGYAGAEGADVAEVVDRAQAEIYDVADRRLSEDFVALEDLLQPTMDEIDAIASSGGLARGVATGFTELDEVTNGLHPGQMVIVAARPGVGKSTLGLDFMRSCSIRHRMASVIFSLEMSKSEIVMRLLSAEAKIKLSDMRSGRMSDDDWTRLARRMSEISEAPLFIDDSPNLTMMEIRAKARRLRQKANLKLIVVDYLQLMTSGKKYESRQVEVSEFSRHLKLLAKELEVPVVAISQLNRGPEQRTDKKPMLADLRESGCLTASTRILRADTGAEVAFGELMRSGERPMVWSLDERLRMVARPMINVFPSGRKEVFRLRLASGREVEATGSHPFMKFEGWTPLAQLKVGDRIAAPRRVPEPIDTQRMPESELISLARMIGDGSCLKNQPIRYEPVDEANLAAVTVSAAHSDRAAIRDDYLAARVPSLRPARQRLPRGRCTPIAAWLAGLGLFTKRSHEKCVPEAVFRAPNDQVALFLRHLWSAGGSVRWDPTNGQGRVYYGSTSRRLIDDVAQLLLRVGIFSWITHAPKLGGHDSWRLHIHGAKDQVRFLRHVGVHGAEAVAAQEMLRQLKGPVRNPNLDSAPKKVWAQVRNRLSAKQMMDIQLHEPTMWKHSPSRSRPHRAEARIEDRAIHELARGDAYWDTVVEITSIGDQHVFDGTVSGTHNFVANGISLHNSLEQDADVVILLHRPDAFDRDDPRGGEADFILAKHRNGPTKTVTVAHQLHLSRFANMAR

Protein RecA = target: T2, Protein RecA (Mycobacterium tuberculosis, UniProt P9WHJ3); test: Fluorescence Cell-Free Homogeneous Dose Retest to Identify Inhibitors of RecA-Intein Splicing Activity. [Related pubchem assays (depositor defined):AID2097, AID2223, AID489010, AID492950]
T2 sequence (P9WHJ3 whole entry): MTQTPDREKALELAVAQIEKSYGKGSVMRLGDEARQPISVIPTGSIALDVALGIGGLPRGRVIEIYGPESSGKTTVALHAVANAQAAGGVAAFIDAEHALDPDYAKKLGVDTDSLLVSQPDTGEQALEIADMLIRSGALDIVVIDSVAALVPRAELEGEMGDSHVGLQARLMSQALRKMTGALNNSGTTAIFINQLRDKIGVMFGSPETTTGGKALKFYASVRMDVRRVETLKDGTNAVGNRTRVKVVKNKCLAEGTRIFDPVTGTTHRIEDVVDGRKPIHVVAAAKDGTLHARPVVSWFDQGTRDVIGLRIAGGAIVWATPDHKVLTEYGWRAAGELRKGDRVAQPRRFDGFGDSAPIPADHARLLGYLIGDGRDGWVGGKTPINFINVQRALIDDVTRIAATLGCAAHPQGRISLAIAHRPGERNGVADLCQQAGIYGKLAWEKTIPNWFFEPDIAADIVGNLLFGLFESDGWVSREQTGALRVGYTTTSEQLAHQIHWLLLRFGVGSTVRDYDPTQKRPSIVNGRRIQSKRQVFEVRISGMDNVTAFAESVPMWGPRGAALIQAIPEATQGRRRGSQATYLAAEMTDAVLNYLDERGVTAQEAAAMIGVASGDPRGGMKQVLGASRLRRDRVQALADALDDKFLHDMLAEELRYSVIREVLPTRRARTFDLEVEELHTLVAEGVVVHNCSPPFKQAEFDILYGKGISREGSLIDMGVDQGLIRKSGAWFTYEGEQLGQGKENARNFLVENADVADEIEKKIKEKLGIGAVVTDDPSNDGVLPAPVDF

[2] = target: T3, Apoptotic protease-activating factor 1 (Homo sapiens, UniProt O14727)
T3 sequence (O14727 whole entry): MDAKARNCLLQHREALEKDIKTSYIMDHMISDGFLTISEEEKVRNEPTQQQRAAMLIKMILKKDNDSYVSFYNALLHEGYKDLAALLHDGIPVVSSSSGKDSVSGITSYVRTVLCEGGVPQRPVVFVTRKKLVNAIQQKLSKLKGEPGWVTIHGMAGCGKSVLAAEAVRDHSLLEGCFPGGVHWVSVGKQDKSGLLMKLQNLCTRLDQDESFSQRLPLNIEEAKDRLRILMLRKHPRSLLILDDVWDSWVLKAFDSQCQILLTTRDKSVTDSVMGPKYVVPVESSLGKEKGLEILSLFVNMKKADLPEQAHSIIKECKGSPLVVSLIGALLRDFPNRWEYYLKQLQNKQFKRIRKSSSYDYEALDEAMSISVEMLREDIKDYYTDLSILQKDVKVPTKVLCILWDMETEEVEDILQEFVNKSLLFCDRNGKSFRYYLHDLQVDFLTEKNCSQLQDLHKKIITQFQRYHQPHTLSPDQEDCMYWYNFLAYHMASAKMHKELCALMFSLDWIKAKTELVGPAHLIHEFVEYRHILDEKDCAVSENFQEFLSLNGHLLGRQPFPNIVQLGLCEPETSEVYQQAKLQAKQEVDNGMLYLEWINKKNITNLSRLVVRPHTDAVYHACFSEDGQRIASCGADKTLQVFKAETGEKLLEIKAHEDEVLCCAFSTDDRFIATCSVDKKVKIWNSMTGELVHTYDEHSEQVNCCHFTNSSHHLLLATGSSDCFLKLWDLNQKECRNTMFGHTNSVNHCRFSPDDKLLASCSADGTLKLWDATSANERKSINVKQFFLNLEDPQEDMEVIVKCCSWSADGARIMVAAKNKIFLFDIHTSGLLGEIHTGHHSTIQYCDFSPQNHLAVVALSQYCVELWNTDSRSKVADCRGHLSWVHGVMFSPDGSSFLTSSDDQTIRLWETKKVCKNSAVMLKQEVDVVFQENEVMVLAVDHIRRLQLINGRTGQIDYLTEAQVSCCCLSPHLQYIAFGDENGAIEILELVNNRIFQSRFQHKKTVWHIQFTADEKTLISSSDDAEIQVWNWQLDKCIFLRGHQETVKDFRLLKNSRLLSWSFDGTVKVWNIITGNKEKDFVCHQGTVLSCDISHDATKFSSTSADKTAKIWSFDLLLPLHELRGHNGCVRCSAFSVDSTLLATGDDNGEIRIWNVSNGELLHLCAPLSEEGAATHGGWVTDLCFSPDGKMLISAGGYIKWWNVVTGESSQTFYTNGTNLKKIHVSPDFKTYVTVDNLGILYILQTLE

Structure (SMILES)	AC50 [1]	EC50 (Protein RecA)	IC50 [2]
CCCCCCCCCCOC(=O)C[n+]1c(COc2ccccc2C)n(C)c2ccccc21	3.01 µM (active)	7.26 µM (active)	8.53 µM (active)
Oc1nc(Nc2ccccc2)cc2ccccc12	> 380 µM (inactive)	1.9 µM (active)	3.31 µM (active)
